Earlier results in US20170326139A1, “COMBINATION THERAPY FOR MALE SEXUAL DYSFUNCTION” (priority 2016, published 2017).
Like-named read-outs stand apart in the source and are kept apart here.

How the values were obtained:
premature ejaculation [1] = details: in vivo
premature ejaculation [2] = system: premature ejaculation
premature ejaculation [3] = system: premature ejaculation; remark: listed apart in the source

Compound: CNCC[C@H](Oc1cccc2ccccc12)c1cccs1 [duloxetine]
- effect on IELT (premature ejaculation [1]): some positive effect on IELT

Compound: CN(C)CCCN1c2ccccc2CCc2ccc(Cl)cc21 [clomipramine]
- effect in treating PE (premature ejaculation [2]; inhaled (nasal) 4 mg or 5 mg on-demand, e.g. one hour pre-coitus): effective in treating PE
- effect on IELT (premature ejaculation [2]; orally administered daily at 10 to 50 mg per day): effectively increase IELT

Compound: CCCc1nn(C)c2c(=O)[nH]c(-c3cc(S(=O)(=O)N4CCN(C)CC4)ccc3OCC)nc12 [sildenafil]
- effect on PE versus placebo (premature ejaculation [3]; sildenafil 50 mg pre-coitus administered alone): no better than placebo
- IELT (premature ejaculation [3]; sildenafil 50 mg pre-coitus combined with behavioral psychotherapy): about 3.63 minutes
